Literature values in patent publication US10213443B2, “Tetracycline topical formulations, preparation and uses thereof in treating an ocular condition” (Hovione International Ltd., priority 2012, dated 2019).

Legend:
[1] = in man
[2] = compared with doxycycline

- oral bioavailability [1]: ~100%
SMILES: CN(C)c1ccc(O)c2c1C[C@H]1C[C@H]3[C@H](N(C)C)C(O)=C(C(N)=O)C(=O)[C@@]3(O)C(O)=C1C2=O [Minocycline, minocycline]
- phototoxicity [2]: not phototoxic
